PubChem BioAssay AID1918998 (Molecular Pharmacology Branch, DTP, NCI, 2023)

System: 521955-158-R2-J5-PDC complex spheroid growth
Assay: Anticancer human tumor 521955-158-R2-J5-PDC patient-derived pancreatic carcinoma cell line growth inhibition [AhR]
Details: for IC50: curve of first compound; for viability, T/C: stronger effect = lower value
Method in brief: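 Spheroids combined tumor cells with HUVEC endothelial cells and human MSCs as stroma. AhR antagonists were paired with standard or investigational drugs, each dosed in half-log steps down from near clinical Cmax, or from 10 microM where Cmax was unknown.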

[1] = second compound 0.1 µM, first compound 0.0316 µM
[2] = second compound 0.1 µM, first compound 0.1 µM
[3] = second compound 0.1 µM, first compound 0.316 µM
[4] = second compound 0.1 µM, first compound 1 µM
[5] = second compound 0.1 µM, first compound 3.16 µM
[6] = second compound 0.1 µM, first compound 10 µM
[7] = second compound 0.316 µM, first compound 0.0316 µM
[8] = second compound 0.316 µM, first compound 0.1 µM
[9] = second compound 0.316 µM, first compound 0.316 µM
[10] = second compound 0.316 µM, first compound 1 µM
[11] = second compound 0.316 µM, first compound 3.16 µM
[12] = second compound 0.316 µM, first compound 10 µM
[13] = second compound 1 µM, first compound 0.0316 µM
[14] = second compound 1 µM, first compound 0.1 µM
[15] = second compound 1 µM, first compound 0.316 µM
[16] = second compound 1 µM, first compound 1 µM
[17] = second compound 1 µM, first compound 3.16 µM
[18] = second compound 1 µM, first compound 10 µM
[19] = second compound 3.16 µM, first compound 0.0316 µM
[20] = second compound 3.16 µM, first compound 0.1 µM
[21] = second compound 3.16 µM, first compound 0.316 µM
[22] = second compound 3.16 µM, first compound 1 µM
[23] = second compound 3.16 µM, first compound 3.16 µM
[24] = second compound 3.16 µM, first compound 10 µM
[25] = second compound 10 µM, first compound 0.0316 µM
[26] = second compound 10 µM, first compound 0.1 µM
[27] = second compound 10 µM, first compound 0.316 µM
[28] = second compound 10 µM, first compound 1 µM
[29] = second compound 10 µM, first compound 3.16 µM
[30] = second compound 10 µM, first compound 10 µM
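For viability, T/C in this document: spheroids mix tumor cells with HUVEC endothelium and human MSC stroma; luminescence taken as viability surrogate after a week of drug exposure.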

Molecule CC(C)CC(NC(=O)C(Cc1ccccc1)NC(=O)c1cnccn1)B(O)O (stereo not given) + Cc1cncc(-c2nc(NCCc3c[nH]c4ccccc34)c3ncn(C(C)C)c3n2)c1 has an IC50 (second compound 0.1 µM) of 16.5 nM, an IC50 (second compound 0.316 µM) of 16.7 nM and an IC50 (second compound 1 µM) of 16.8 nM. The IC50 (second compound 3.16 µM) was 15.1 nM, the IC50 (second compound 10 µM) was 6.44 nM and the viability, T/C (second compound 0.1 µM, first compound 0.000949 µM) was 103%. It also gave a viability, T/C (second compound 0.1 µM, first compound 0.003 µM) of 103%, a viability, T/C (second compound 0.1 µM, first compound 0.00949 µM) of 91.8% and a viability, T/C (second compound 0.1 µM, first compound 0.03 µM) of 4.93%. For the same molecule, the viability, T/C (second compound 0.1 µM, first compound 0.0949 µM) was 0.17%, the viability, T/C (second compound 0.1 µM, first compound 0.3 µM) was 0.27% and the viability, T/C (second compound 0.316 µM, first compound 0.000949 µM) was 118%. The viability, T/C (second compound 0.316 µM, first compound 0.003 µM) was 92.1%, the viability, T/C (second compound 0.316 µM, first compound 0.00949 µM) was 97.5% and the viability, T/C (second compound 0.316 µM, first compound 0.03 µM) was 0.39%. For the same molecule, the viability, T/C (second compound 0.316 µM, first compound 0.0949 µM) was 0.25%, the viability, T/C (second compound 0.316 µM, first compound 0.3 µM) was 0.21% and the viability, T/C (second compound 1 µM, first compound 0.000949 µM) was 107%. The viability, T/C (second compound 1 µM, first compound 0.003 µM) was 128%, the viability, T/C (second compound 1 µM, first compound 0.00949 µM) was 98.2% and the viability, T/C (second compound 1 µM, first compound 0.03 µM) was 1.49%. The viability, T/C (second compound 1 µM, first compound 0.0949 µM) was 2.14%, the viability, T/C (second compound 1 µM, first compound 0.3 µM) was 0.89% and the viability, T/C (second compound 3.16 µM, first compound 0.000949 µM) was 141%. The viability, T/C (second compound 3.16 µM, first compound 0.003 µM) was 127%, the viability, T/C (second compound 3.16 µM, first compound 0.00949 µM) was 81.7% and the viability, T/C (second compound 3.16 µM, first compound 0.03 µM) was 0.28%. The viability, T/C (second compound 3.16 µM, first compound 0.0949 µM) was 2.97%, the viability, T/C (second compound 3.16 µM, first compound 0.3 µM) was 2.29% and the viability, T/C (second compound 10 µM, first compound 0.000949 µM) was 144%. For the same molecule, the viability, T/C (second compound 10 µM, first compound 0.003 µM) was 126%, the viability, T/C (second compound 10 µM, first compound 0.00949 µM) was 11.6% and the viability, T/C (second compound 10 µM, first compound 0.03 µM) was 0.28%. For the same molecule, the viability, T/C (second compound 10 µM, first compound 0.0949 µM) was 2.54% and the viability, T/C (second compound 10 µM, first compound 0.3 µM) was 0.26%.
COc1cccc2c1C(=O)c1c(O)c3c(c(O)c1C2=O)CC(O)(C(=O)CO)CC3OC1CC(N)C(O)C(C)O1 (stereo not given) + Cc1ccccc1N=Nc1ccc(NC(=O)c2ccnn2C)c(C)c1 was tested, and the IC50 (second compound 0.1 µM) was < 31.6 nM, the IC50 (second compound 0.316 µM) was 36.9 nM and the IC50 (second compound 1 µM) was 42.1 nM. The IC50 (second compound 3.16 µM) was < 31.6 nM, the IC50 (second compound 10 µM) was 165 nM and the viability, T/C [1] was 40.6%. The viability, T/C [2] was 34.4%, the viability, T/C [3] was 28.5% and the viability, T/C [4] was 6.16%. It also gave a viability, T/C [5] of 2.14%, a viability, T/C [6] of 9.5% and a viability, T/C [7] of 53.9%. It also gave a viability, T/C [8] of 33.6%, a viability, T/C [9] of 34% and a viability, T/C [10] of 7.86%. It also gave a viability, T/C [11] of 3.02%, a viability, T/C [12] of 11.5% and a viability, T/C [13] of 55%. The viability, T/C [14] was 34.9%, the viability, T/C [15] was 30.1% and the viability, T/C [16] was 4.75%. For the same molecule, the viability, T/C [17] was 2.47%, the viability, T/C [18] was 11.2% and the viability, T/C [19] was 55.6%. It also gave a viability, T/C [20] of 39.9%, a viability, T/C [21] of 34.3% and a viability, T/C [22] of 6.42%. The viability, T/C [23] was 4.98%, the viability, T/C [24] was 9.42% and the viability, T/C [25] was 89.7%. It also gave a viability, T/C [26] of 63%, a viability, T/C [27] of 34.4% and a viability, T/C [28] of 3.83%. For the same molecule, the viability, T/C [29] was 2.39% and the viability, T/C [30] was 7.28%.
COc1ccc([C@@H](O)c2cc(-c3ncnc4cc(N5CCOCC5)ccc34)c(F)cc2Cl)nn1 + Cc1ccccc1N=Nc1ccc(NC(=O)c2ccnn2C)c(C)c1 was tested, and the IC50 (second compound 0.1 µM) was > 10000 nM, the IC50 (second compound 0.316 µM) was > 10000 nM and the IC50 (second compound 1 µM) was > 10000 nM. The IC50 (second compound 3.16 µM) was > 10000 nM, the IC50 (second compound 10 µM) was > 10000 nM and the viability, T/C [1] was 116%. It also gave a viability, T/C [2] of 98.5%, a viability, T/C [3] of 75.9% and a viability, T/C [4] of 78.1%. The viability, T/C [5] was 67.1%, the viability, T/C [6] was 48.3% and the viability, T/C [7] was 98.8%. It also gave a viability, T/C [8] of 96.3%, a viability, T/C [9] of 93.5% and a viability, T/C [10] of 89.9%. The viability, T/C [11] was 72.8%, the viability, T/C [12] was 56.6% and the viability, T/C [13] was 109%. It also gave a viability, T/C [14] of 133%, a viability, T/C [15] of 108% and a viability, T/C [16] of 97.2%. It also gave a viability, T/C [17] of 84.4%, a viability, T/C [18] of 59% and a viability, T/C [19] of 139%. For the same molecule, the viability, T/C [20] was 117%, the viability, T/C [21] was 128% and the viability, T/C [22] was 101%. For the same molecule, the viability, T/C [23] was 91.3%, the viability, T/C [24] was 54.3% and the viability, T/C [25] was 142%. It also gave a viability, T/C [26] of 136%, a viability, T/C [27] of 142% and a viability, T/C [28] of 105%. For the same molecule, the viability, T/C [29] was 88.9% and the viability, T/C [30] was 49.9%.
CC1(C)CCC(CN2CCN(c3ccc(C(=O)NS(=O)(=O)c4ccc(NCC5CCOCC5)c([N+](=O)[O-])c4)c(Oc4cnc5[nH]ccc5c4)c3)CC2)=C(c2ccc(Cl)cc2)C1 + CC(CO)NC(=O)c1cc(-c2ccc(Cl)cc2)nn(-c2cnn(C)c2)c1=O was tested, and the IC50 (second compound 0.1 µM) was > 10000 nM, the IC50 (second compound 0.316 µM) was > 10000 nM and the IC50 (second compound 1 µM) was > 10000 nM. For the same molecule, the IC50 (second compound 3.16 µM) was > 10000 nM, the IC50 (second compound 10 µM) was > 10000 nM and the viability, T/C [1] was 103%. It also gave a viability, T/C [2] of 125%, a viability, T/C [3] of 92.1% and a viability, T/C [4] of 92.7%. For the same molecule, the viability, T/C [5] was 98%, the viability, T/C [6] was 67.3% and the viability, T/C [7] was 115%. The viability, T/C [8] was 111%, the viability, T/C [9] was 124% and the viability, T/C [10] was 100%. It also gave a viability, T/C [11] of 111%, a viability, T/C [12] of 67.7% and a viability, T/C [13] of 93.1%. The viability, T/C [14] was 105%, the viability, T/C [15] was 122% and the viability, T/C [16] was 138%. For the same molecule, the viability, T/C [17] was 124%, the viability, T/C [18] was 56% and the viability, T/C [19] was 123%. For the same molecule, the viability, T/C [20] was 99.1%, the viability, T/C [21] was 113% and the viability, T/C [22] was 113%. It also gave a viability, T/C [23] of 108%, a viability, T/C [24] of 61.9% and a viability, T/C [25] of 90.2%. It also gave a viability, T/C [26] of 120%, a viability, T/C [27] of 109% and a viability, T/C [28] of 92.8%. For the same molecule, the viability, T/C [29] was 95.1% and the viability, T/C [30] was 63.7%.
Cn1ncnc1C1c2n[nH]c(=O)c3cc(F)cc(c23)NC1c1ccc(F)cc1 (stereo not given) + CC(CO)NC(=O)c1cc(-c2ccc(Cl)cc2)nn(-c2cnn(C)c2)c1=O was tested, and the IC50 (second compound 0.1 µM) was > 100 nM, the IC50 (second compound 0.316 µM) was > 100 nM and the IC50 (second compound 1 µM) was > 100 nM. For the same molecule, the IC50 (second compound 3.16 µM) was > 100 nM, the IC50 (second compound 10 µM) was > 100 nM and the viability, T/C (second compound 0.1 µM, first compound 0.000316 µM) was 99.2%. The viability, T/C (second compound 0.1 µM, first compound 0.001 µM) was 112%, the viability, T/C (second compound 0.1 µM, first compound 0.00316 µM) was 116% and the viability, T/C (second compound 0.1 µM, first compound 0.01 µM) was 108%. For the same molecule, the viability, T/C [1] was 105%, the viability, T/C [2] was 83% and the viability, T/C (second compound 0.316 µM, first compound 0.000316 µM) was 117%. For the same molecule, the viability, T/C (second compound 0.316 µM, first compound 0.001 µM) was 107%, the viability, T/C (second compound 0.316 µM, first compound 0.00316 µM) was 120% and the viability, T/C (second compound 0.316 µM, first compound 0.01 µM) was 119%. The viability, T/C [7] was 74.1%, the viability, T/C [8] was 103% and the viability, T/C (second compound 1 µM, first compound 0.000316 µM) was 103%. The viability, T/C (second compound 1 µM, first compound 0.001 µM) was 134%, the viability, T/C (second compound 1 µM, first compound 0.00316 µM) was 112% and the viability, T/C (second compound 1 µM, first compound 0.01 µM) was 114%. The viability, T/C [13] was 106%, the viability, T/C [14] was 100% and the viability, T/C (second compound 3.16 µM, first compound 0.000316 µM) was 118%. It also gave a viability, T/C (second compound 3.16 µM, first compound 0.001 µM) of 121%, a viability, T/C (second compound 3.16 µM, first compound 0.00316 µM) of 86.1% and a viability, T/C (second compound 3.16 µM, first compound 0.01 µM) of 89.3%. The viability, T/C [19] was 86.1%, the viability, T/C [20] was 78.5% and the viability, T/C (second compound 10 µM, first compound 0.000316 µM) was 104%. The viability, T/C (second compound 10 µM, first compound 0.001 µM) was 100%, the viability, T/C (second compound 10 µM, first compound 0.00316 µM) was 99.7% and the viability, T/C (second compound 10 µM, first compound 0.01 µM) was 82.6%. It also gave a viability, T/C [25] of 60.1% and a viability, T/C [26] of 77.8%.
